#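 Each compound was tested at five concentrations against cells in 96-well plates for 48 hours. Here, GI50 denotes the concentration required for 50% inhibition of growth. The concentration for full growth arrest is given as TGI.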
# Tests used:
# Experiment in all cases: growth of human tumour cells (NCI), 48 h
# [1] = test system: SK-MEL-2 melanoma
# [2] = test system: EKVX NSCLC
# [3] = test system: PC-3 prostate
# [4] = test system: K-562 leukemia
# [5] = test system: KM20L2 colon
# [6] = test system: BT-549 breast
# [7] = test system: RXF 393 renal
# [8] = test system: CAKI-1 renal
# [9] = test system: SF-268 CNS
# [10] = test system: LOX IMVI melanoma
# [11] = test system: A549 NSCLC
# [12] = test system: DU-145 prostate
# [13] = test system: HCT-15 colon
# [14] = test system: T-47D breast
# [15] = test system: SF-539 CNS
# [16] = test system: OVCAR-4 ovarian
# [17] = test system: MOLT-4 leukemia
# [18] = test system: M19-MEL melanoma
# [19] = test system: NCI-H23 lung
# [20] = test system: SNB-78 CNS
# [21] = test system: UACC-62 melanoma
# [22] = test system: HOP-62 NSCLC
# [23] = test system: HCC-2998 colon
# [24] = test system: TK-10 renal
# [25] = test system: HOP-18 NSCLC
# [26] = test system: HL-60(TB) leukemia
# [27] = test system: RPMI-8226 leukemia
# [28] = test system: MCF7 breast
# [29] = test system: MDA-N
# [30] = test system: SK-MEL-28 melanoma
# [31] = test system: RXF-631 renal
# [32] = test system: UACC-257 melanoma
# [33] = test system: HCT-116 colon
# [34] = test system: NCI/ADR-RES ovarian
# [35] = test system: CCRF-CEM leukemia
# [36] = test system: ACHN renal
# [37] = test system: UO-31 renal
# [38] = test system: OVCAR-5 ovarian
# [39] = test system: SK-OV-3 ovarian
# [40] = test system: LXFL 529 NSCLC
# [41] = test system: SK-MEL-5 melanoma
# [42] = test system: COLO 205 colon
# [43] = test system: SNB-75 CNS
# [44] = test system: HS 578T breast
# [45] = test system: SR leukemia
# [46] = test system: SNB-19 CNS
# [47] = test system: SN12C renal
# [48] = test system: NCI-H522 lung
# [49] = test system: M14 melanoma
# [50] = test system: MALME-3M melanoma
# [51] = test system: A498 renal
# [52] = test system: NCI-H460 lung
# [53] = test system: HT29 colon
# [54] = test system: SF-295 CNS
# [55] = test system: 786-0 renal
# [56] = test system: XF 498 CNS
# [57] = test system: U251 CNS
# [58] = test system: IGROV1 ovarian
# [59] = test system: OVCAR-3 ovarian
# [60] = test system: DLD-1 colon
# [61] = test system: OVCAR-8 ovarian
# [62] = test system: SW-620 colon
# [63] = test system: MDA-MB-435
# [64] = test system: NCI-H226 lung
# [65] = test system: KM12 colon
# [66] = test system: HOP-92 NSCLC
# [67] = test system: DMS 114 small cell lung
# [68] = test system: DMS 273 small cell lung
# [69] = test system: MDA-MB-231 breast
smiles,measurement,setting,value
COC1/C=C\C=C(/C)C(=O)NC2=CC(=O)C(N)=C(CC(C)CC(OC)C(O)C(C)C=C(C)C1OC(N)=O)C2=O (stereo not given),TGI,[1],14.9 µM
same,TGI,[2],63 µM
same,TGI,[3],> 75.7 µM
same,GI50,[4],0.0982 µM
same,TGI,[4],> 69.6 µM
same,TGI,[5],0.0192 µM
same,GI50,[6],0.0806 µM
same,TGI,[6],> 45.2 µM
same,TGI,[7],> 94.7 µM
same,TGI,[8],> 89.8 µM
same,TGI,[9],68.6 µM
same,GI50,[10],0.0761 µM
same,TGI,[10],1.55 µM
same,TGI,[11],40.9 µM
same,GI50,[12],0.067 µM
same,TGI,[12],31.7 µM
same,TGI,[13],31.5 µM
same,TGI,[14],33.7 µM
same,GI50,[15],0.0397 µM
same,TGI,[15],> 44.4 µM
same,TGI,[16],36.9 µM
same,TGI,[17],48.7 µM
same,TGI,[18],12.5 µM
same,GI50,[19],0.0375 µM
same,TGI,[19],21.5 µM
same,TGI,[20],91.1 µM
same,GI50,[21],0.0322 µM
same,TGI,[21],18.4 µM
same,TGI,[22],> 78 µM
same,TGI,[23],1.74 µM
same,TGI,[24],> 77.2 µM
same,TGI,[25],32.4 µM
same,TGI,[26],19.3 µM
same,TGI,[27],65.4 µM
same,TGI,[28],37.6 µM
same,GI50,[29],0.0829 µM
same,TGI,[29],12.6 µM
same,GI50,[30],0.0513 µM
same,TGI,[30],> 73.8 µM
same,TGI,[31],> 100 µM
same,TGI,[32],14.5 µM
same,TGI,[33],25.3 µM
same,TGI,[34],> 100 µM
same,TGI,[35],35.8 µM
same,TGI,[36],83.5 µM
same,TGI,[37],40.4 µM
same,TGI,[38],39.7 µM
same,GI50,[39],0.0822 µM
same,TGI,[39],> 100 µM
same,TGI,[40],> 100 µM
same,TGI,[41],15.8 µM
same,GI50,[42],0.0614 µM
same,TGI,[42],0.0507 µM
same,TGI,[43],11.3 µM
same,TGI,[44],59.4 µM
same,GI50,[45],< 0.01 µM
same,TGI,[45],1.64 µM
same,TGI,[46],93.7 µM
same,TGI,[47],29 µM
same,TGI,[48],0.392 µM
same,GI50,[49],0.0379 µM
same,TGI,[49],33.4 µM
same,TGI,[50],15.4 µM
same,TGI,[51],> 96.4 µM
same,GI50,[52],0.0459 µM
same,TGI,[52],> 54.7 µM
same,GI50,[53],0.0337 µM
same,TGI,[53],> 63.7 µM
same,TGI,[54],> 62.2 µM
same,TGI,[55],> 100 µM
same,TGI,[56],24.8 µM
same,GI50,[57],0.0822 µM
same,TGI,[57],> 48.9 µM
same,TGI,[58],25.9 µM
same,TGI,[59],20.2 µM
same,TGI,[60],17.7 µM
same,TGI,[61],33.9 µM
same,GI50,[62],0.0468 µM
same,TGI,[62],17.4 µM
same,GI50,[63],0.051 µM
same,TGI,[63],14.9 µM
same,TGI,[64],> 100 µM
CN(C)CCNc1ccc2nnn3c4ccccc4c(=O)c1c23,TGI,[1],13.9 µM
same,TGI,[2],13.4 µM
same,TGI,[3],7.79 µM
same,TGI,[4],18.9 µM
same,TGI,[5],11.6 µM
same,TGI,[6],32.3 µM
same,TGI,[7],16.6 µM
same,TGI,[8],18.5 µM
same,TGI,[9],18.8 µM
same,TGI,[10],3.72 µM
same,TGI,[11],6.56 µM
same,TGI,[12],9.68 µM
same,TGI,[13],13 µM
same,TGI,[14],32.3 µM
same,TGI,[15],15.6 µM
same,TGI,[65],13.9 µM
same,TGI,[16],9.44 µM
same,TGI,[17],21 µM
same,TGI,[18],9.42 µM
same,TGI,[19],11.6 µM
same,TGI,[20],30.5 µM
same,TGI,[21],11.6 µM
same,TGI,[66],9.6 µM
same,TGI,[22],14.2 µM
same,TGI,[23],13.1 µM
same,TGI,[24],12.7 µM
same,TGI,[26],15.7 µM
same,TGI,[27],23.9 µM
same,TGI,[28],25.2 µM
same,TGI,[29],12.4 µM
same,TGI,[30],15.1 µM
same,TGI,[31],10.3 µM
same,TGI,[32],11.4 µM
same,TGI,[33],13.7 µM
same,TGI,[34],9.82 µM
same,TGI,[35],20.6 µM
same,TGI,[36],7.01 µM
same,TGI,[37],8.6 µM
same,TGI,[38],11.4 µM
same,TGI,[39],33.2 µM
same,TGI,[40],17.5 µM
same,TGI,[41],5.35 µM
same,TGI,[42],5.9 µM
same,TGI,[43],10.4 µM
same,TGI,[44],9.8 µM
same,TGI,[45],> 32.8 µM
same,TGI,[46],34.8 µM
same,TGI,[47],19.9 µM
same,TGI,[48],8.31 µM
same,TGI,[49],9.03 µM
same,TGI,[67],12.7 µM
same,TGI,[50],10.4 µM
same,TGI,[51],8.96 µM
same,TGI,[52],7.16 µM
same,TGI,[53],11 µM
same,TGI,[54],13.8 µM
same,TGI,[55],16.5 µM
same,TGI,[68],11.5 µM
same,TGI,[56],19.5 µM
same,TGI,[57],7.63 µM
same,TGI,[58],26.5 µM
same,TGI,[59],12.8 µM
same,TGI,[69],15.3 µM
same,TGI,[60],22.9 µM
same,TGI,[61],9.91 µM
same,TGI,[62],11 µM
same,TGI,[63],13.8 µM
same,TGI,[64],5.28 µM
